The record followed here is ChEMBL document CHEMBL1139651, “Antiarrhythmic activity of 4,6-di(het)aryl-5-nitro-3,4-dihydropyrimidin-(1H)-2-ones and its effects on arterial pressure in rats” (2006).

For orientation: LD50 means the dose expected to kill half of the subjects tested. A high value points to a less toxic substance. A word on the ED50: it is the dose that gives a 50% effect, or the effect in half of the subjects. Higher therefore signals a need for a large dose.

Some results are limits rather than exact numbers.

For this assay, the system named is Rattus norvegicus. Description: Antiarrhythmic activity in iv dosed rat. In kind it is functional. To be noted: Heart; for minimal effective dose: read-out: MED.

In the case of `O=C1NC(c2ccccc2)=C([N+](=O)[O-])C(c2cccnc2)N1` (stereo not given), the LD50 is above 1000 mg/kg and the minimal effective dose was determined as 35 µg/kg.
Taken in the same sequence, the figures for `O=C1NC(c2ccccc2)=C([N+](=O)[O-])C(c2ccccc2)N1` (stereo not given) were above 5000 mg/kg and 35 µg/kg.
Take `COc1ccc(CCN(C)CCCC(C#N)(c2ccc(OC)c(OC)c2)C(C)C)cc1OC` (stereo not given): the ED50 amounted to 1.1 mg/kg.
For `COC(=O)C1=C(C)NC(C)=C(C(=O)OC)C1c1ccccc1[N+](=O)[O-]` [NIFEDIPINE], the 50% lethal dose (LD50) came to 210 mg/kg and the minimal effective dose is 3500 µg/kg.
For `O=C1NC(c2ccccc2)=C([N+](=O)[O-])C(c2cccc(F)c2)N1` (stereo not given) the same measures were above 5000 mg/kg and 0.35 µg/kg.
For `O=C1NC(c2ccccc2)=C([N+](=O)[O-])C(c2cccc([N+](=O)[O-])c2)N1` (stereo not given) the same measures were above 1000 mg/kg and 0.045 µg/kg.
For `O=C1NC(c2ccccc2)=C([N+](=O)[O-])C(c2ccc(O)cc2)N1` (stereo not given) the same measures were above 5000 mg/kg and 35 µg/kg.
Regarding `O=C1NC(c2ccccc2)=C([N+](=O)[O-])C(c2cccs2)N1` (stereo not given), the LD50 is above 1000 mg/kg and the minimal effective dose was 3500 µg/kg.
